Laboratory results as given in US5523289A, “Pharmaceutical composition” (Abbott Laboratories, priority 1993, dated 1996).

Tests used:
[1] = dog, in vivo, po
Procedure: The following compositions comprising compound I were prepared and the bioavailability of each composition was determined in fasted dogs.
Dogs (beagle dogs, mixed sexes, weighing about 10 kg) were fasted for at least 12 hours before dosing. Food was returned after the last blood sample was collected (24 hours). Water was available at all times.
A dose equivalent to 50 or 100 milligrams of compound I was administered by mouth to each dog, followed with either 20 or 50 ml of water through a feeding tube.
Blood samples were collected at the following times: 0, 0.5, 1, 2, 3, 4, 6, 8, 12 and 24 hours. Blood samples of 3 ml volume were anti-coagulated with EDTA. The plasma was separated by centrifugation and frozen until analyzed. Blood plasma concentrations of compound I were determined by HPLC.
Bioavailability was calculated as follows: % Bioavailability=[(AUC)oral×D/(AUC) intravenous]×100. (AUC)oral and (AUC) intravenous are the areas under the curve for the plasma concentration-time profiles following oral and intravenous administration, respectively. D is defined as the intravenous vs. oral DOSE ratio. In particular, D=(DOSE)iv/DOSE)oral. The intravenous dose was 3.0 mg/kg and oral dose was about 5.0 mg/kg or about 10.0 mg/kg. The (AUC) intravenous value used corresponds to the mean value from a separate group of 6 dogs.

[2] = tested on: salt depleted dogs; assay: Blood pressure in salt depleted dogs after oral or intravenous administration; type: in vivo

CC(C)C[C@H](O)[C@H](O)[C@H](CC1CCCCC1)NC(=O)[C@H](Cc1cscn1)NC(=O)[C@H](Cc1ccccc1)CS(=O)(=O)N1CCN(C)CC1 [compound I, (2S)-2-Benzyl-3-(1-methyl-piperazin-4-ylsulfonyl)propionyl-(L)-(4-Thiazolyl)Ala Amide of (2S, 3R, 4S)-2-Amino-1-cyclohexyl-3,4-dihydroxy-6-methylheptane]
times more bioavailable orally as a tablet with organic polycarboxylic acid compared to tablet or powder filled capsule without the acid [1]: ≤ 7.8 times
effect on blood pressure [2]: reduces blood pressure
